This note sets out measurements from patent publication US12612358B2, “Resorcinol-based compounds and uses thereof” (priority 2020, dated 2026).

Data set [1] relates to PANC-1. In words: CellTiter-Glo cell proliferation, PANC-1 pancreatic cancer cells. The data set is classed as cell-based, human. Conditions: Homo sapiens; PANC-1 (by context); read-out: IC50, inhibition of cell viability/proliferation. The text has this:
Cell culture and treatment of pancreatic cancer cell lines: Pancreatic cancer cells lines BxPC-3, SW1990, and PANC-1 used in the experiments presented herein can be obtained from ATCC. The cells can be cultured and passaged in complete growth medium (RPMI-1640, Dulbecco's Modified Eagle Medium, or Leibovitz's L-15 medium) that has been supplemented with fetal bovine serum to a final concentration of 10%.
Effects of Compound-5B on proliferation and Id-1 expression in pancreatic cell lines. Compound-5B was next tested for inhibition of cell viability/proliferation in the three pancreatic cancer cell lines and two primary patient-derived cancer cell lines. Compound-5B inhibited cell viability/proliferation of all the cancer cell lines (Table 2). The culturing condition for the pancreatic cell lines was similar to those used in the breast cancer lines, with the exception of the primary patient-derived pancreatic cancer cell lines (PANC9 and PANC13). For determining inhibition of cell proliferation in patient-derived pancreatic cancer cells were cultured in a T75 ultra low attachment flasks with DMEM/F12 media supplemented with B27, penicillin/streptomycin (10,000 u/mL), 50 µg/mL human epidermal growth factor (hEGF), 50 μg/mL human fibroblast growth factor, and 5 μg/mL heparin. Cells were plated in a 384-well plate and incubated for three days to promote the formation of tumorspheres. Cells were then treated with Compound-5B for three days. Cell proliferation of pancreatic cells in the presence of drug was measured using the CellTiter-Glo luminescent Assay and IC50 values were calculated (Table 2). The IC50 and corresponding 95% confidence limits (CL) were calculated using non-linear regression analysis.
In general terms: ATP-based viability assays read luminescence as a measure of living cells.

Data set [2] relates to MDA-MB231 D3H. Nature of the data set: CellTiter-Glo viability/proliferation assay, MDA-MB231 breast cancer cells. Particulars: Homo sapiens, MDA-MB-231, 48 h, read-out: Inhibition of MDA-MB231 D3H. The data set is classed as cell-based.
The subject of data set [3] is SKOv3 (ovarian). In words: Cell proliferation, SKOv3 ovarian cancer cells. The data set is classed as cell-based. Particulars: Homo sapiens, SK-OV-3, read-out: IC50 category. From the text:
Effects of Compound-5B on cell proliferation in additional cancer cells: To determine whether Compound-5B would have broad based anticancer activity, we study whether Compound-5B would be effective at inhibiting cell proliferation in a variety of cancers overexpressing Id-1. The assay conditions used were identical to those presented for breast and pancreatic cancers. Indeed, Compound-5B was potent at inhibiting cell proliferation in blood cancer (leukemia), glioblastoma, prostate, and ovarian cancer.

Data set [4] has as its system PANC-1 tumors. Nature of the data set: PANC-1 subcutaneous xenograft in athymic nu/nu mice. The data set is classed as in vivo. Conditions: PANC-1 tumor mice; Compound-5B 10 mg/kg i.p. daily, gemcitabine 50 mg/kg i.p. three times a week.
[5] abbreviates: CellTiter-Glo, two-day treatment.

Where two headings read alike, the source gives them in different places.

For `C=C(C)[C@@H]1CCC(C)=C[C@H]1c1c(O)cc(CCCCC)cc1O` [CBD, cannabidiol, reference compound], in data set [1], the IC50 turned out to be 1900 nM.
In the case of `CCCCCCC(C)(C)c1cc(O)c(C(=O)NC2CCCCC2)c(O)c1` [Compound 5A, N-cyclohexyl-2,6-dihydroxy-4-(2-methyloctan-2-yl)benzamide], the IC50 in data set [2] is less than 500 nM.
For the compound `CCCCCCC(C)(C)c1cc(O)c(C(=O)Nc2ccccn2)c(O)c1` [Compound 5C, 2,6-dihydroxy-4-(2-methyloctan-2-yl)-N-(cyridin-2-yl) benzamide], the IC50 in data set [2] (setting [5]) is less than 500 nM.
Turning to `CCCCCCC(C)(C)c1cc(O)c(C(=O)Nc2ccncn2)c(O)c1` [Compound 5D, 2,6-dihydroxy-4-(2-methyloctan-2-yl)-N-(pyrimidin-4-yl)benzamide], the IC50 in data set [2] (setting [5]) is less than 500 nM.
Regarding `CCCCCCC(C)(C)c1cc(O)c(C(=O)N(C)c2ccccc2)c(O)c1` [Compound 5E, 2,6-dihydroxy-N-methyl-4-(2-methyloctan-2-yl)-N-phenylbenzamide], the IC50 in data set [2] lay within 1000 to 5000 nM; in data set [3], 500 to 1000 nM.
Consider `CCCCCCC(C)(C)c1cc(O)c(C(=O)Nc2ccc(N3CCN(C)CC3)cc2)c(O)c1` [Compound 5F, 2,6-dihydroxy-4-(2-methyloctan-2-yl)-N-(4-(4-methylpiperazin-1-yl)phenyl)benzamide], for which, in data set [2] (setting [5]), the IC50 was greater than 15000 nM.
With `CCCCCCC(C)(C)c1cc(O)c(C(=O)Nc2cccc(N3CCN(C)CC3)c2)c(O)c1` [Compound 5G, 2,6-dihydroxy-4-(2-methyloctan-2-yl)-N-(3-(4-methylpiperazin-1-yl)phenyl)benzamide], the IC50 in data set [2] (setting [5]) lay in the range of 1000 to 5000 nM.
In the case of `CCCCCCC(C)(C)c1cc(O)c(C(=O)Nc2ccccc2N2CCN(C)CC2)c(O)c1` [Compound 5H, 2,6-dihydroxy-4-(2-methyloctan-2-yl)-N-(2-(4-methylpiperazin-1-yl)phenyl)benzamide], in data set [2] (setting [5]), the IC50 is 500 to 1000 nM.
`CCCCCCC(C)(C)c1cc(O)c(C(=O)Nc2ccc(N3CCOCC3)cc2)c(O)c1` [Compound 5I, 2,6-dihydroxy-4-(2-methyloctan-2-yl)-N-(4-morpholinophenyl)benzamide]: the IC50 in data set [2] (setting [5]) was less than 500 nM.
Take `CCCCCCC(C)(C)c1cc(O)c(C(=O)Nc2cccc(N3CCOCC3)c2)c(O)c1` [Compound 5J, 2,6-dihydroxy-4-(2-methyloctan-2-yl)-N-(3-morpholinophenyl)benzamide]: the IC50 in data set [2] (setting [5]) was less than 500 nM.
`CCCCCCC(C)(C)c1cc(O)c(C(=O)Nc2ccccc2N2CCOCC2)c(O)c1` [Compound 5K, 2,6-dihydroxy-4-(2-methyloctan-2-yl)-N-(2-morpholinophenyl)benzamide]: in data set [2] (setting [5]), the IC50 was less than 500 nM.
Same read-out and setting: the value for `CCCCCc1cc(O)c(C(=O)Nc2ccccc2)c(O)c1` [Compound 11, 2,6-dihydroxy-4-pentyl-N-phenylbenzamide] was less than 500 nM.
In the case of `CC(C)(c1ccccc1)c1cc(O)c(C(=O)NC2CCCCC2)c(O)c1` [Compound 17A, N-cyclohexyl-2,6-dihydroxy-4-(2-phenylpropan-2-yl)benzamide], the IC50 in data set [2] was in the range of 500 to 1000 nM.
Take `CC(C)(c1ccccc1)c1cc(O)c(C(=O)Nc2ccccc2)c(O)c1` [Compound 17B, 2,6-dihydroxy-N-phenyl-4-(2-phenylpropan-2-yl)benzamide]: the IC50 in data set [2] (setting [5]) is less than 500 nM.
`CC(C)(c1cc(O)c(C(=O)Nc2ccccc2)c(O)c1)C1CCCCC1` [Compound 17C, 4-(2-cyclohexylpropan-2-yl)-2,6-dihydroxy-N-phenylbenzamide]: in data set [2], the IC50 was less than 500 nM.
Take `CC(C)(c1cc(O)c(C(=O)Nc2ccccn2)c(O)c1)C1CCCCC1` [Compound 17D, 4-(2-cyclohexylpropan-2-yl)-2,6-dihydroxy-N-(pyridin-2-yl)benzamide]: the IC50 in data set [2] is less than 500 nM.
For the compound `CC(C)(CCCCN1CCOCC1)c1cc(O)c(C(=O)Nc2ccccc2)c(O)c1` [Compound 26A, 2,6-dihydroxy-4-(2-methyl-6-morpholinohexan-2-yl)-N-phenylbenzamide], in data set [2] (setting [5]), the IC50 was 1000 to 5000 nM.
As for `Nc1ccn([C@@H]2O[C@H](CO)[C@@H](O)C2(F)F)c(=O)n1` [gemcitabine, reference compound], in data set [4], the “weight loss (metric of drug toxicity)” value is “significant weight loss”.
